Laboratory results from publication PMC5516944 (Structure (London, England : 1993), 2017).

T1: hATL1 (Homo sapiens, UniProt Q8WXF7)
T1 sequence (Q8WXF7 1-446): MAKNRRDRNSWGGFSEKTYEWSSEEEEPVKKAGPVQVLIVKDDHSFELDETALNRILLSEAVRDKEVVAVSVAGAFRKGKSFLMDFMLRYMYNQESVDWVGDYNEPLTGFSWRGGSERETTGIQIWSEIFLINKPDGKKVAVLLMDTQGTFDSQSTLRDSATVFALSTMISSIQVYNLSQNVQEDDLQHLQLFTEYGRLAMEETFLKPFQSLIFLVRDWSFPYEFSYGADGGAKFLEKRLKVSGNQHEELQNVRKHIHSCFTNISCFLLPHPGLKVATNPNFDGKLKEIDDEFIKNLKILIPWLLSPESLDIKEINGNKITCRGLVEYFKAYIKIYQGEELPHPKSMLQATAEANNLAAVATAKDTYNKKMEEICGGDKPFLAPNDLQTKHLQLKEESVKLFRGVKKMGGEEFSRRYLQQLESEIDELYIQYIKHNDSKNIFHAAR

T2: hATL3 (Homo sapiens, UniProt Q6DD88)
T2 sequence (Q6DD88 1-442): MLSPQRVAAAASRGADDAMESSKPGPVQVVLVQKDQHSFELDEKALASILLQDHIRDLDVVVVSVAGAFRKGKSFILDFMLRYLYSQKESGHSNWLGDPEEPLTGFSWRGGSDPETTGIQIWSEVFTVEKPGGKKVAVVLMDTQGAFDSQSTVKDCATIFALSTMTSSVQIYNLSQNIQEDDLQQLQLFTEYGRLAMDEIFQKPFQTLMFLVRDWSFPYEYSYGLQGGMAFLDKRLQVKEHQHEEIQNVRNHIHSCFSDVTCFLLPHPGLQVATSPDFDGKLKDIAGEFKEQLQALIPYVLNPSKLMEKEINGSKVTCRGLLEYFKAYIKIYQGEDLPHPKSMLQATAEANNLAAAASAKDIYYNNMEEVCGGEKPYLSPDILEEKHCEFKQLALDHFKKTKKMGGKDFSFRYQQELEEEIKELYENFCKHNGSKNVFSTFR


What was measured:
hATL1 = target: T1, hATL1; test: SEC-MALS, nucleotide-induced dimerisation; assay type: binding; conditions: 1 mM nucleotide; 40 μM protein; pH 7.5; 4 mM MgCl2
hATL3 = target: T2, hATL3; test: SEC-MALS, nucleotide-induced dimerisation; assay type: binding; conditions: 1 mM nucleotide; 40 μM protein; pH 7.5; 4 mM MgCl2
SEC-MALS = target: the molecule itself; test: SEC-MALS

Molecule	SEC-MALS, nucleotide-induced dimerisation (hATL1)	SEC-MALS, nucleotide-induced dimerisation (hATL3)	stoichiometry N (SEC-MALS)
Nc1nc2c(ncn2[C@@H]2O[C@H](COP(=O)(O)OP(=O)(O)NP(=O)(O)O)[C@@H](O)[C@H]2O)c(=O)[nH]1 [GppNHp]	dimeric ATLs are found when bound to GppNHp and GDP•AlFx	dimeric ATLs are found when bound to GppNHp and GDP•AlFx	
human atlastin 1 (hATL1) catalytic core fragment, G and middle domains (1–446) (domain or fragment, UniProt Q8WXF7 1-446, looked up) MAKNRRDRNSWGGFSEKTYEWSSEEEEPVKKAGPVQVLIVKDDHSFELDETALNRILLSEAVRDKEVVAVSVAGAFRKGKSFLMDFMLRYMYNQESVDWVGDYNEPLTGFSWRGGSERETTGIQIWSEIFLINKPDGKKVAVLLMDTQGTFDSQSTLRDSATVFALSTMISSIQVYNLSQNVQEDDLQHLQLFTEYGRLAMEETFLKPFQSLIFLVRDWSFPYEFSYGADGGAKFLEKRLKVSGNQHEELQNVRKHIHSCFTNISCFLLPHPGLKVATNPNFDGKLKEIDDEFIKNLKILIPWLLSPESLDIKEINGNKITCRGLVEYFKAYIKIYQGEELPHPKSMLQATAEANNLAAVATAKDTYNKKMEEICGGDKPFLAPNDLQTKHLQLKEESVKLFRGVKKMGGEEFSRRYLQQLESEIDELYIQYIKHNDSKNIFHAAR			2
human atlastin 3 (hATL3) catalytic core fragment, G and middle domains (1–442) (domain or fragment, UniProt Q6DD88 1-442, looked up) MLSPQRVAAAASRGADDAMESSKPGPVQVVLVQKDQHSFELDEKALASILLQDHIRDLDVVVVSVAGAFRKGKSFILDFMLRYLYSQKESGHSNWLGDPEEPLTGFSWRGGSDPETTGIQIWSEVFTVEKPGGKKVAVVLMDTQGAFDSQSTVKDCATIFALSTMTSSVQIYNLSQNIQEDDLQQLQLFTEYGRLAMDEIFQKPFQTLMFLVRDWSFPYEYSYGLQGGMAFLDKRLQVKEHQHEEIQNVRNHIHSCFSDVTCFLLPHPGLQVATSPDFDGKLKDIAGEFKEQLQALIPYVLNPSKLMEKEINGSKVTCRGLLEYFKAYIKIYQGEDLPHPKSMLQATAEANNLAAAASAKDIYYNNMEEVCGGEKPYLSPDILEEKHCEFKQLALDHFKKTKKMGGKDFSFRYQQELEEEIKELYENFCKHNGSKNVFSTFR			2
